SMILES strings stand for the structures.

Here are results for five compounds from US11253498B2, “Pharmaceutical composition for treatment of bone-related disease” (Nexyon Biotech Co., Ltd., priority 2017, dated 2022).

Assay [1] relates to preosteoblast cells. Put plainly: Osteoblast mineralized nodules, alizarin red staining (Example 1-2). In kind it is cell-based, mice. The note with it: vs negative control (0 μM); for amount of pigments colored in the nodules (differentiation of preosteoblast cells): alizarin red staining, 21 days, 0 to 50 μM, FIG. 1; for effect on the differentiation into osteoblasts (quantified, absorbance 570 nm): concentration series, FIG. 2 and FIG. 3. The procedure: In order to isolate preosteoblast cells, the calvarium was removed from 1- to 3-day-old mice, and then preosteoblast cells were obtained via a process in which the calvarium was subjected to treatment with 1 mg/ml collagenase and 2 mg/ml dispase.
Here, the medium for differentiation induction was replaced with fresh medium at 2- to 3-day intervals, and differentiation induction was performed for a total of 21 days. In order to identify the differentiation into osteoblasts, alizarin red staining was performed. Differentiation-induced cells were fixed by being incubated with 10% neutral formalin at 4° C. for 20 minutes, and then stained by being incubated with 1.36% alizarin red solution (pH 4.1 to 4.3) for 40 minutes. The results are illustrated in FIG. 1.
The results obtained by performing quantification with tauroursodeoxycholic acid, deoxycholic acid, or taurocholic acid are illustrated in FIG. 3.

The subject of assay [2] is ovary-extracted mouse model. The assay can be described thus: Drug administration in ovary-extracted mouse model, femur micro-CT (Example 2-1). The following applies: 5 mg/kg oral, once a day, five days a week, 4 weeks; vs OVX group receiving vehicle only; FIG. 7. The format is in vivo, C57BL/6 female mice. The text has this: Twenty-four 8-week-old C57BL/6 female mice were randomly divided into three groups, that is, control group (sham), ovary-extracted group (OVX), and OVX+Formula 2 group obtained by administering the compound of Formula 2 to the ovary-extracted group, each group consisting of 8 mice. All three groups were anesthetized using zoletil and rompun. Then, the OVX and OVX+Formula 2 groups were subjected to ovary extraction, and then sutured. The control group was subjected to ovary exposure, and then sutured without ovarian removal. Osteoporosis was induced for 4 weeks.
Starting from 4 weeks after ovarian extraction, on five days a week and once a day, the control group and the OVX group orally received 200 μl of vehicle (tetrahydrofuran:PEG-400:water=1:6:3 in volume), and the OVX+Formula 2 group orally received 200 μl obtained by mixing 5 mg/kg of compound of Formula 2 with a vehicle.
After oral administration for 4 weeks, all mice were sacrificed and the femur was extracted therefrom. The extracted femur was fixed in 10% neutral formalin. Photographs were taken at 7.1 μm voxel size using Skyscan 1173 micro-CT machine, and then bone density was analyzed by CTAn program. The results are illustrated in FIG. 7.

Assay [3] concerns preosteoblast cells. The assay can be described thus: Differentiation into osteoblasts, alizarin red S staining, cholesterol sulphate with or without Formula 2 (Example 2-2). In kind it is cell-based, mice. The following applies: FIG. 8. The procedure:
The calvarium was removed from 1- to 3-day-old mice, and then subjected to enzymatic treatment with 1 mg/ml collagenase and 2 mg/ml dispase, to obtain preosteoblast cells. […] Then, differentiation into osteoblasts was induced. Replacement of the medium for differentiation was performed at 2- to 3-day intervals and differentiation was induced for a total of 14 to 21 days. Alizarin red S staining was used to evaluate the differentiation into osteoblasts, thereby quantitatively evaluate the degree of mineralized nodule production. The differentiated cells were fixed in 10% neutral formalin at 4° C. for 20 minutes, and then stained with 1.36% alizarin red solution (pH 4.1 to 4.3) for 40 minutes. The stained pattern was photographed or scanned. […] The degree of differentiation into osteoblasts is illustrated in FIG. 8.

On to `C[C@H](CCC(=O)NCCS(=O)(=O)O)[C@H]1CC[C@H]2[C@@H]3[C@@H](O)C[C@@H]4C[C@H](O)CC[C@]4(C)[C@H]3CC[C@]12C` [tauroursodeoxycholic acid], for which, in assay [1], the “amount of pigments colored in the nodules (differentiation of preosteoblast cells)” value is reported as “no effect” and the “effect on the differentiation into osteoblasts (quantified, absorbance 570 nm)” value is on record as “no significant difference”.

In the case of `C[C@H](CCC(=O)NCCS(=O)(=O)O)[C@H]1CC[C@H]2[C@@H]3[C@H](O)C[C@@H]4C[C@H](O)CC[C@]4(C)[C@H]3C[C@H](O)[C@]12C` [taurocholic acid], in assay [1], the “amount of pigments colored in the nodules (differentiation of preosteoblast cells)” value was “no effect” and the “effect on the differentiation into osteoblasts (quantified, absorbance 570 nm)” value is “no significant difference”.

For `NS(=O)(=O)Oc1ccc2c3c(c(=O)oc2c1)CCCCC3` [Formula 2, 6-oxo-6,7,8,9,10,11-hexahydrocyclohepta[c]chromen-3-yl sulfamate], the “increase in the volume of trabecular bone” value in assay [2] turned out to be 90%. The differentiation into osteoblasts result is “does not increase” in assay [3] (5 μM compound of Formula 2 alone) and “further enhances an effect of cholesterol sulphate” in assay [3] (5 μM compound of Formula 2 in combination with 0 to 50 μM cholesterol sulphate).

With `C[C@H](CCC(=O)O)[C@H]1CC[C@H]2[C@@H]3CC[C@@H]4C[C@H](O)CC[C@]4(C)[C@H]3C[C@H](O)[C@]12C` [deoxycholic acid], the “amount of pigments colored in the nodules (differentiation of preosteoblast cells)” value in assay [1] was “no effect”.

On to `CC(C)CCC[C@@H](C)[C@H]1CC[C@H]2[C@@H]3CC=C4C[C@@H](OS(=O)(=O)O)CC[C@]4(C)[C@H]3CC[C@]12C` [Formula 1, [(3S,8S,9S,10R,13R,14S,17R)-10,13-dimethyl-17-[(2R)-6-methylheptan-2-yl]-2,3,4,7,8,9,11,12,14,15,16,17-dodecahydro-1H-cyclopenta[a]phenanthren-3-yl] hydrogen sulphate], for which the differentiation into osteoblasts entry in assay [3] (0 to 50 μM cholesterol sulphate alone) was “increases the differentiation into osteoblasts in a dose-dependent manner”.
